The record followed here is PMC4747340, “A new class of small molecule estrogen receptor-alpha antagonists that overcome anti-estrogen resistance” (Oncotarget, 2015).

Assay type in all cases: cell-based
The target in assay [1] is T1, ER Arg394Ala (Homo sapiens, UniProt P03372, R394A).
T1 construct: expressed in transfected cells; host or cells: MDA-MB-231
The assay can be described thus: ER mutation analysis, ERE-TK-Luc reporter in transfected MDA-MB-231 cells. Particulars: MDA-MB-231 transfected with mutant ER, E2 10 nM, 24 hr. An excerpt:
(§1) B., C. Panels B and C show a comparison of the ER interaction of one of our original series of compounds (A7) (B) and one new compounds (48693-K/1) (C). ER is represented by gray ribbon and its residues interacting with the compounds are drawn with wireframe and labeled. […] The hydrogen bond interaction with ARG 394 is shown in green line. […] The cells were harvested for luciferase assays. Luciferase values are expressed as a percent of the +E2 vehicle control and are means ± SEMs of four wells. The data shown in panels D to G are representative of three independent experiments.
(§2) Subconfluent cells in 24-well dishes were transfected overnight with 0.25 μg of each indicated vector plus the ERE-TK-Luc reporter in serum-free DMEM containing Lipofectamine2000 (Life Technologies, Washington, DC). Total transfected DNA was kept constant by addition of control vector. The cells were washed, incubated in phenol red-free DMEM containing 5% charcoal-stripped serum (obtained from the Tissue Culture Shared Resource) (0.2 ml/well) ± E2 (10 nM) ± the indicated compound for 24-hr, and harvested for luciferase assays. For each assay condition was tested in quadrupicate. To monitor the transfection efficiency, cultures were co-transfected with plasmid pRSV-β-gal (Promega, Madison, WI) to visualize transfected cells by X-gal staining.

In assay [2] the target is T2, ER Glu323Ala (Homo sapiens, UniProt P03372, E323A).
T2 construct: expressed in transfected cells; host or cells: MDA-MB-231
The description is as above. Particulars: MDA-MB-231 transfected with mutant ER, E2 10 nM, 24 hr.
Description: as §1, §2

For assay [3], the target named is T3, ER Glu353Ala (Homo sapiens, UniProt P03372, E353A).
T3 construct: expressed in transfected cells; host or cells: MDA-MB-231
Described as above. As to conditions: MDA-MB-231 transfected with mutant ER, E2 10 nM, 24 hr.
Description: as §1, §2

Assay [4] concerns the target T4, ER His356Ala (Homo sapiens, UniProt P03372, H356A).
T4 construct: expressed in transfected cells; host or cells: MDA-MB-231
The description is as above. Particulars: MDA-MB-231 transfected with mutant ER, E2 10 nM, 24 hr.
Description: as §1, §2

For assay [5], the target named is T5, ER Ile326Ala (Homo sapiens, UniProt P03372, I326A).
T5 construct: expressed in transfected cells; host or cells: MDA-MB-231
The assay is described as above. Particulars: MDA-MB-231 transfected with mutant ER, E2 10 nM, 24 hr.
Description: as §1, §2

The target of assay [6] is T6, ER Ile386Ala (Homo sapiens, UniProt P03372, I386A).
T6 construct: expressed in transfected cells; host or cells: MDA-MB-231
The description is as above. Particulars: MDA-MB-231 transfected with mutant ER, E2 10 nM, 24 hr.
Description: as §1, §2

Assay [7] addresses T7, ER Ile386Ala+Leu387Ala (Homo sapiens, UniProt P03372, I386A/L387A).
T7 construct: expressed in transfected cells; host or cells: MDA-MB-231
The description is as above. Particulars: MDA-MB-231 transfected with mutant ER, E2 10 nM, 24 hr.
Description: as §1, §2

The target in assay [8] is T8, ER Leu327Ala (Homo sapiens, UniProt P03372, L327A).
T8 construct: expressed in transfected cells; host or cells: MDA-MB-231
The assay is described as above. Particulars: MDA-MB-231 transfected with mutant ER, E2 10 nM, 24 hr.
Description: as §1, §2

Assay [9] has as its target T9, ER Leu387Ala (Homo sapiens, UniProt P03372, L387A).
T9 construct: expressed in transfected cells; host or cells: MDA-MB-231
The description is as above. Particulars: MDA-MB-231 transfected with mutant ER, E2 10 nM, 24 hr.
Description: as §1, §2

Assay [10] concerns the target T10, ER Lys449Ala (Homo sapiens, UniProt P03372, K449A).
T10 construct: expressed in transfected cells; host or cells: MDA-MB-231
The description is as above. As to conditions: MDA-MB-231 transfected with mutant ER, E2 10 nM, 24 hr.
Description: as §1, §2

Assay [11] deals with T11, ER Pro324Ala (Homo sapiens, UniProt P03372, P324A).
T11 construct: expressed in transfected cells; host or cells: MDA-MB-231
Described as above. As to conditions: MDA-MB-231 transfected with mutant ER, E2 10 nM, 24 hr.
Description: as §1, §2

Assay [12] concerns the target T12, ER Pro325Ala (Homo sapiens, UniProt P03372, P325A).
T12 construct: expressed in transfected cells; host or cells: MDA-MB-231
The description is as above. Particulars: MDA-MB-231 transfected with mutant ER, E2 10 nM, 24 hr.
Description: as §1, §2

For assay [13], the target named is T13, ER Prol325Ala (Homo sapiens, UniProt P03372, P325A).
T13 construct: expressed in transfected cells; host or cells: MDA-MB-231
The description is as above. Particulars: MDA-MB-231 transfected with mutant ER, E2 10 nM, 24 hr; second row for residue 325.
Description: as §1, §2

Assay [14] concerns the target T14, ER Trp393Ala (Homo sapiens, UniProt P03372, W393A).
T14 construct: expressed in transfected cells; host or cells: MDA-MB-231
The assay is described as above. As to conditions: MDA-MB-231 transfected with mutant ER, E2 10 nM, 24 hr.
Description: as §1, §2

The target of assay [15] is T15, Wild-type ER (Homo sapiens, UniProt P03372).
T15 construct: expressed in transfected cells; host or cells: MDA-MB-231
The description is as above. As to conditions: MDA-MB-231 transfected with wtER, E2 10 nM, 24 hr.
Description: as §1, §2

Assay [16] concerns the target T16, estrogen receptor-alpha (ER) (Homo sapiens, UniProt P03372).
T16 sequence (P03372 1-595): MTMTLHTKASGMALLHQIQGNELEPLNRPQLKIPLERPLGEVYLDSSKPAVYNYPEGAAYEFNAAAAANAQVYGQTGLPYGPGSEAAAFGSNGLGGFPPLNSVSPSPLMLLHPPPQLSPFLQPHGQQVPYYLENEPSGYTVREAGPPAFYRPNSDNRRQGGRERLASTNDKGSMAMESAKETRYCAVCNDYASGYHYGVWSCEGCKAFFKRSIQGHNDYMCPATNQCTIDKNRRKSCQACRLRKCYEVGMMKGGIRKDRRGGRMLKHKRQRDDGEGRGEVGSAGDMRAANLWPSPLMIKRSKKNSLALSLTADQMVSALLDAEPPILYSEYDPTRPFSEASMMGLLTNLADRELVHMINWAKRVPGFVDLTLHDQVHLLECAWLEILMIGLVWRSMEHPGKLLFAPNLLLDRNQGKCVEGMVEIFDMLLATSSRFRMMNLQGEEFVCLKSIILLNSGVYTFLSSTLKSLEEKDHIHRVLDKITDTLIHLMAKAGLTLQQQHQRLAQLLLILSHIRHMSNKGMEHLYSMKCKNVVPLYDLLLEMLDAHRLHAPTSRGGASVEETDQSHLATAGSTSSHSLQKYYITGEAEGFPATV
The assay can be described thus: constitutive ER activity, ERE-TK-Luc reporter, in anti-estrogen resistant LCC9 cells. Particulars: compound plus Tam compared with compound alone, 24 hr. Details: LCC9 cells in 24-well dishes were transfected overnight with the ERE-TK-Luc reporter plasmid; endogenous in cells; host or cells: LCC9. The protocol:
For MCF-7, luciferase activity is expressed as a fold-change relative to the no E2 control. For LCC9, luciferase activity is expressed relative to the control without the reporter present. Values plotted are means ± SEMs of four replicate wells. The data shown in each panel are representative of three independent experiments.
The cells were then treated with the indicated concentrations of the six bioactive compounds or vehicle only (DMSO) for 24-hr and assayed for luciferase activity. Luciferase activity is expressed as a percentage of the DMSO control. Values are means ± SEMs of four replicate wells. The data shown in each panel are representative of three independent experiments.
The cells were then harvested for luciferase assays. Luciferase activity was expressed as a fold-change relative to the no reporter control. Values plotted are means ± SEMs of four replicate wells. The data shown are representative of three independent experiments.
as §2

T12 sequence (P03372 whole entry P325A): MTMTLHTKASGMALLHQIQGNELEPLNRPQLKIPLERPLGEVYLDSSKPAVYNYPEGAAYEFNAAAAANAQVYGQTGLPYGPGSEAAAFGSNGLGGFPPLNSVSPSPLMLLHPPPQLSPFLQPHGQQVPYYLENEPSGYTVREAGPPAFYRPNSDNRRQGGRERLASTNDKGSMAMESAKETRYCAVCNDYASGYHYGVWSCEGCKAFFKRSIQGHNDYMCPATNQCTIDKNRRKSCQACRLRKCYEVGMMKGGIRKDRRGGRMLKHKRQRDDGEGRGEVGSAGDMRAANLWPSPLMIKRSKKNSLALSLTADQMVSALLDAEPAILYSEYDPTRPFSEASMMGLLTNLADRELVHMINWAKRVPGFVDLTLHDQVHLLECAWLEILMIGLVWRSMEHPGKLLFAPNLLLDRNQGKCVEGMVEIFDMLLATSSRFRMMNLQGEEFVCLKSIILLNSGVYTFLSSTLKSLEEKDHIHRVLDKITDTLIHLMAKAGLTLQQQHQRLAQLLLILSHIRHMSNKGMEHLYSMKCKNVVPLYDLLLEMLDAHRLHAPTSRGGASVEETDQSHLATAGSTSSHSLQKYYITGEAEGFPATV
T13 sequence (P03372 whole entry P325A): as above
T9 sequence (P03372 whole entry L387A): as the sequence (P03372 whole entry P325A) above, with A325P, L387A counted along it
T14 sequence (P03372 whole entry W393A): as the sequence (P03372 whole entry P325A) above, with A325P, W393A counted along it
T4 sequence (P03372 whole entry H356A): as the sequence (P03372 whole entry P325A) above, with A325P, H356A counted along it
T1 sequence (P03372 whole entry R394A): as the sequence (P03372 whole entry P325A) above, with A325P, R394A counted along it
T7 sequence (P03372 whole entry I386A/L387A): as the sequence (P03372 whole entry P325A) above, with A325P, I386A, L387A counted along it
T8 sequence (P03372 whole entry L327A): as the sequence (P03372 whole entry P325A) above, with A325P, L327A counted along it
T10 sequence (P03372 whole entry K449A): as the sequence (P03372 whole entry P325A) above, with A325P, K449A counted along it
T5 sequence (P03372 whole entry I326A): as the sequence (P03372 whole entry P325A) above, with A325P, I326A counted along it
T3 sequence (P03372 whole entry E353A): as the sequence (P03372 whole entry P325A) above, with A325P, E353A counted along it
T6 sequence (P03372 whole entry I386A): as the sequence (P03372 whole entry P325A) above, with A325P, I386A counted along it
T11 sequence (P03372 whole entry P324A): as the sequence (P03372 whole entry P325A) above, with P324A, A325P counted along it
T2 sequence (P03372 whole entry E323A): as the sequence (P03372 whole entry P325A) above, with E323A, A325P counted along it

For `Oc1cc(CN2COc3ccccc32)c(O)cc1CNC1CCCCC1` [A7, reference compound], the IC50 (usually the concentration that gives 50% inhibition) amounted to 12 µM in [1]; 13 µM in [2]; 11 µM in assay [3]; 11 µM in assay [4]; 13 µM in assay [5]; 2.5 µM in assay [6]. Moreover, the IC50 in assay [7] stood at 2.5 µM; in [8], 12 µM; in assay [9], 2.5 µM; in assay [10] it was 2 µM; in assay [11], 3 µM; in assay [12], 7 µM. The IC50 in assay [13] came to 7 µM; in assay [14], 12 µM; in [15], 2.5 µM. The “ER activity in LCC9 cells, compound combined with Tam” value in [16] is listed as “no more inhibition of ER activity than A7 alone”.
